Where two headings read alike, the source gives them in different places. Marks after values point to notes of the source that are not given here. Each block holds one compound with its values, some of them ahead of it.
How the values were obtained:
[1] = cited from earlier work; for k1, first hydrolysis step to the monoaqua complex: analogous dichloride complexes, I=0.1 M
[2] = Solubility of TPA carboxylates, Example 6; format: physicochemical; details: aqueous; table title ambient temperature, text 37° C.
[3] = Initial hydrolysis of TPA carboxylates monitored by HPLC at 37° C.; format: physicochemical; details: H2O; for hydrolysis occurring after 9 h: HPLC; for k1, initial hydrolysis rate constant: I=0.02 M
Description: The slowest initial hydrolysis rate was found for complex 2c t-[Pt(OAc)2(NH3)(2-pic)], with just 4% hydrolysis occurring after 9 h. The hydrolysis of the formate complex 4f was the fastest, with 24% hydrolysis occurring after 9 h. The hydrolysis rates of the acetate complexes followed the pattern 2c<4c<3c. […] Thus, hydrolysis of the acetate complexes is slowed by an approximate order of magnitude compared to their direct chloro analogs but there is little difference in the present case between 3- and 4-picoline. Steric hindrance therefore predominates over the electronic effects of the methyl group. In the case of the chloride complexes, the 3-pic directs less electron density to the platinum rendering it less nucleophilic relative to the 2-pic and 4-pic. 14 We observe the same trend in the acetate complexes, but the effect is lessened due to the carboxylate group being a weak ligand, with a low trans influence and trans effect.^11

[4] = corresponding diaqua complex; other compounds of the series 2-4c given for comparison (refs 11, 14); cited from earlier work
[5] = cited from earlier work; for k1, rate constant for the first aquation step: literature values of other platinum compounds
41M = test: Growth inhibition in human ovarian cancer cell line panel, 96 h exposure; format: cell-based; details: for 41M RF: RF = (IC50 Resistant)/(IC50 Sensitive)
Description: (§1) It is noteworthy that the acetate compounds maintain cytotoxicity with low resistance factors in all cases. The trans-[Pt(OAc)2(NH3)2] compound is also very water-soluble but the cytotoxicity of >100 μM confirms the requirement for a planar amine to enhance cytotoxicity in the trans geometry.

CH1 = test: as above; format: cell-based; details: for CH1 RF: RF = (IC50 Resistant)/(IC50 Sensitive)
Description: as §1

[6] = literature; cited from earlier work
[7] = Aqueous solubility of TPA-acetate complexes (sequential addition of water); format: physicochemical; details: ambient temperature
Description: (§2) The aqueous solubility of the acetate compounds and the acid dissociation constants of the corresponding aqua species are given in Table 1. Use of acetates enhances aqueous solubility which is dependent on the exact nature of the donor ligands. The pKa values were determined by potentiometric titration of solutions of trans-[Pt(H2O)2(L)(L′)]^2+ (formed by the dissolution of the isolated trans-[Pt(NO3)2(L)(L′)]) with NaOH. […] (X=2,3,4-Me).^30

[8] = pKa of corresponding TPA diaqua complexes by potentiometric titration with NaOH; format: physicochemical; details: corresponding diaqua complex trans-[Pt(OH2)2(L)(L′)], ambient temperature
Description: as §2

[9] = test system: ovarian cancer cell line panel; test: Cytotoxicity in ovarian cancer cell line panel (cell line not specified); format: cell-based, human
Description: as §1

A2780 = test: Growth inhibition in human ovarian cancer cell line panel, 96 h exposure; format: cell-based; details: for A2780 RF: RF = (IC50 Resistant)/(IC50 Sensitive)
Description: as §1

Compound: Cc1ccccn1.N.[Cl][Pt][Cl] [2-pic]
k1, first hydrolysis step to the monoaqua complex [1]: 2.6e-05 s⁻¹

Compound: CC(=O)[O-].CC(=O)[O-].Cc1ccccn1.N.[Pt+2] [2c, trans-[Pt(OAc)2(NH3)(2-pic)]]
Solubility (mg/mL), TPA Acetates [2]: 10 mg/mL | hydrolysis occurring after 9 h [3]: 4% | k1, initial hydrolysis rate constant [3]: 1.07e-06 s⁻¹ | pKa1 [4]: 4.03 | pKa2 [4]: 7.1

Compound: Cc1cccnc1.N.[Cl][Pt][Cl] [3-pic]
k1, first hydrolysis step to the monoaqua complex [1]: 0.000127 s⁻¹

Compound: Cc1ccncc1.N.[Cl][Pt][Cl] [4-pic]
k1, first hydrolysis step to the monoaqua complex [1]: 5.2e-05 s⁻¹

Compound: [NH2][Pt]1([NH2])[O]C(=O)C2(CCC2)C(=O)[O]1 [Carboplatin, cis-[Pt(CBDCA)(NH3)2]]
hydrolysis rate constant ([5]; aqueous solution): < 5e-09 s⁻¹ | k1, rate constant for the first aquation step [5]: <10^−8 s^−1 | hydrolysis rate ([5]; phosphate buffer at 310 K): 7.2e-07 s⁻¹

Compound: N.N.[Cl][Pt][Cl] [Cisplatin, cis-[PtCl2(NH3)2], reference compound]
IC50 (41M): 1.4 µM | 41M RF (41M): (6.1) | IC50 (CH1): 0.1 µM | CH1 RF (CH1): (6.7) | k1, rate constant for the first aquation step [5]: 5.18e-05 s⁻¹ | hydrolysis rate ([1]; at 20° C., literature): 5.18e-05 s⁻¹

Compound: N.N.[Cl][Pt+2][Cl] [Transplatin, trans-[PtCl2(NH3)2]]
k1, rate constant for the first aquation step [5]: 0.00019 s⁻¹ | time to complete reaction with N-AcMet [6]: ≤ 5 h

Compound: NCCNCCN.[Cl-].[Pt+2] [[PtCl(dien)]+]
k1, rate constant for the first aquation step [5]: (6.50 ± 0.13) × 10^−5 s^−1

Compound: CCC[NH][Pt]([NH]CCC)([O]C(=O)CCl)[O]C(=O)CCl [cis-[Pt(PrNH2)2(ClCH2CO2)2]]
rate constant of substitution by water of the first carboxylate ligand ([5]; cis carboxylate complex, literature): 4.38e-05 s⁻¹

Compound: CC(=O)[O][Pt][O]C(C)=O.N.N [trans-[Pt(OAc)2(NH3)2]]
Solubility [7]: 21 mg/mL | pKa1 [8]: 4.0^b | pKa2 [8]: 7.08 | IC50 [9]: > 100 µM

Compound: trans-[diacetato(ammine)(quinoline)platinum(II)] [trans-[Pt(OAc)2(NH3)(quin)]]
IC50 (41M): 22 µM | 41M RF (41M): (1.00) | IC50 (A2780): 13 µM | A2780 RF (A2780): (1.46) | IC50 (CH1): 17 µM | CH1 RF (CH1): (0.48)

Compound: trans-[diacetatobis(pyridine)platinum(II)] [trans-[Pt(OAc)2(py)2]]
IC50 (41M): 14 µM | 41M RF (41M): (0.32) | IC50 (A2780): 12.8 µM | A2780 RF (A2780): (0.90) | IC50 (CH1): 19 µM | CH1 RF (CH1): (0.22)

The next lines start with results.

Solubility (mg/mL), TPA Acetates [2]: 11.4 mg/mL | k1, initial hydrolysis rate constant [3]: 3.52e-06 s⁻¹
Compound: CC(=O)[O][Pt][O]C(C)=O.Cc1cccnc1.N [3c]
pKa1 [4]: 3.97 | pKa2 [4]: 6.78

Solubility (mg/mL), TPA Acetates [2]: 13.2 mg/mL | k1, initial hydrolysis rate constant [3]: 3.26e-06 s⁻¹
Compound: CC(=O)[O][Pt][O]C(C)=O.Cc1ccncc1.N [4c]
pKa1 [4]: 3.94 | pKa2 [4]: 6.88

k1, initial hydrolysis rate constant [3]: 5.61e-06 s⁻¹
Compound: Cc1ccncc1.N.O=C(CO)[O][Pt][O]C(=O)CO [4d, trans-[Pt(OAcOH)2(NH3)(4-pic)]]

Solubility (mg/mL), TPA Substituted Carboxylates [2]: Insoluble
Compound: Cc1ccncc1.N.O=C([O-])C(F)(F)F.O=C([O-])C(F)(F)F.[Pt+2] [4g, trans-[Pt(Tfa)2(NH3)(4-pic)]]

Solubility (mg/mL), TPA Substituted Carboxylates [2]: Insoluble
Compound: Cc1ccncc1.N.O=C([O-])c1ccccc1.O=C([O-])c1ccccc1.[Pt+2] [4h, trans-[Pt(OBz)2(NH3)(4-pic)]]

Solubility (mg/mL), TPA Substituted Carboxylates [2]: 0.29 mg/mL | hydrolysis occurring after 9 h [3]: 24%
Compound: trans-[Pt(OAcCl)2(NH3)(4-pic)] [4f]

— patent US8324197B2, “Transplatinum complexes with N2O2 donor sets as cytotoxic and antitumor agents” (Virginia Commonwealth University, priority 2005, dated 2012)
